Results published in the supplement of paper PMC10307832.

Legend:
Assay in all cases: relative viability (nuclei count vs DMSO), 5 days (fraction); higher = more cells survive
[1] = compound: CN(C)C(=N)NC(=N)N [Metformin] + Nc1nc2[nH]cc(CCc3ccc(C(=O)N[C@@H](CCC(=O)O)C(=O)O)cc3)c2c(=O)[nH]1 [Pemetrexed] (partner 0.2 µM)
Outline: (§1)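 Lung cancer cell lines in 1536-well plates were dosed by pin tool the day after seeding, either with one drug alone or with a fixed anchor-drug dose plus five library-drug doses (not always all listed) in √10 steps. After 5 days, cells were fixed and their nuclei stained in one step (final 0.05% Triton X-100, 1% formaldehyde, 1 ug/ml Hoechst), then counted on 4× images. Relative viability is the nuclei count in treated wells divided by that in vehicle wells. Values are medians of duplicate plates.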

[2] = compound: N#CC1(c2ccc(NC(=O)c3cccnc3NCc3ccncc3)cc2)CCCC1 [Apatinib] + COc1cccc2cc(-c3nc([C@H]4CC[C@H](C(=O)O)CC4)n4ncnc(N)c34)[nH]c12 [OSI-027] (partner 0.5 µM)
Outline: as §1

[3] = compound: N#CC1(c2ccc(NC(=O)c3cccnc3NCc3ccncc3)cc2)CCCC1 [Apatinib] + Nc1ncn([C@H]2C[C@H](O)[C@@H](CO)O2)c(=O)n1 [Decitabine] (partner 2 µM)
Outline: as §1

[4] = compound: N#CC1(c2ccc(NC(=O)c3cccnc3NCc3ccncc3)cc2)CCCC1 [Apatinib] + O=C(c1cc(Cc2n[nH]c(=O)c3ccccc23)ccc1F)N1CCN(C(=O)C2CC2)CC1 [Olaparib] (partner 8 µM)
Outline: as §1

BEN
relative viability ([1]; first compound 10 µM): 1.11 | relative viability ([1]; first compound 31.62 µM): 1.08 | relative viability ([1]; first compound 100 µM): 0.733 | relative viability ([1]; first compound 316.23 µM): 0.812 | relative viability ([1]; first compound 1000 µM): 0.64 | relative viability ([2]; first compound 0.08 µM): 0.283 | relative viability ([2]; first compound 0.253 µM): 0.277 | relative viability ([2]; first compound 0.8 µM): 0.3 | relative viability ([2]; first compound 2.53 µM): 0.299 | relative viability ([2]; first compound 8 µM): 0.317 | relative viability ([3]; first compound 0.08 µM): 0.694 | relative viability ([3]; first compound 0.253 µM): 0.668 | relative viability ([3]; first compound 0.8 µM): 0.672 | relative viability ([3]; first compound 2.53 µM): 0.693 | relative viability ([3]; first compound 8 µM): 0.723 | relative viability ([4]; first compound 0.08 µM): 1.35 | relative viability ([4]; first compound 0.253 µM): 1.24 | relative viability ([4]; first compound 0.8 µM): 1.13 | relative viability ([4]; first compound 2.53 µM): 0.987 | relative viability ([4]; first compound 8 µM): 0.774

NCI-H1755
relative viability ([1]; first compound 10 µM): 0.416 | relative viability ([1]; first compound 31.62 µM): 0.443 | relative viability ([1]; first compound 100 µM): 0.392 | relative viability ([1]; first compound 316.23 µM): 0.34 | relative viability ([1]; first compound 1000 µM): 0.376 | relative viability ([2]; first compound 0.08 µM): 0.838 | relative viability ([2]; first compound 0.253 µM): 0.729 | relative viability ([2]; first compound 0.8 µM): 0.699 | relative viability ([2]; first compound 2.53 µM): 0.672 | relative viability ([2]; first compound 8 µM): 0.523 | relative viability ([3]; first compound 0.08 µM): 0.712 | relative viability ([3]; first compound 0.253 µM): 0.701 | relative viability ([3]; first compound 0.8 µM): 0.644 | relative viability ([3]; first compound 2.53 µM): 0.91 | relative viability ([3]; first compound 8 µM): 0.837 | relative viability ([4]; first compound 0.08 µM): 0.846 | relative viability ([4]; first compound 0.253 µM): 0.892 | relative viability ([4]; first compound 0.8 µM): 0.835 | relative viability ([4]; first compound 2.53 µM): 0.876 | relative viability ([4]; first compound 8 µM): 0.753

LOU-NH91
relative viability ([1]; first compound 10 µM): 0.438 | relative viability ([1]; first compound 31.62 µM): 0.394 | relative viability ([1]; first compound 100 µM): 0.409 | relative viability ([1]; first compound 316.23 µM): 0.385 | relative viability ([1]; first compound 1000 µM): 0.437 | relative viability ([2]; first compound 0.08 µM): 0.636 | relative viability ([2]; first compound 0.253 µM): 0.667 | relative viability ([2]; first compound 0.8 µM): 0.599 | relative viability ([2]; first compound 2.53 µM): 0.619 | relative viability ([2]; first compound 8 µM): 0.676 | relative viability ([3]; first compound 0.08 µM): 0.85 | relative viability ([3]; first compound 0.253 µM): 0.827 | relative viability ([3]; first compound 0.8 µM): 0.732 | relative viability ([3]; first compound 2.53 µM): 0.741 | relative viability ([3]; first compound 8 µM): 0.776 | relative viability ([4]; first compound 0.08 µM): 0.976 | relative viability ([4]; first compound 0.253 µM): 0.885 | relative viability ([4]; first compound 0.8 µM): 0.783 | relative viability ([4]; first compound 2.53 µM): 0.87 | relative viability ([4]; first compound 8 µM): 0.825

LC-2-ad
relative viability ([1]; first compound 31.62 µM): 0.313 | relative viability ([1]; first compound 100 µM): 0.271 | relative viability ([1]; first compound 316.23 µM): 0.263 | relative viability ([1]; first compound 1000 µM): 0.25 | relative viability ([2]; first compound 0.08 µM): 0.752 | relative viability ([2]; first compound 0.253 µM): 0.761 | relative viability ([2]; first compound 0.8 µM): 0.828 | relative viability ([2]; first compound 2.53 µM): 0.813 | relative viability ([2]; first compound 8 µM): 0.68 | relative viability ([3]; first compound 0.08 µM): 0.862 | relative viability ([3]; first compound 0.253 µM): 0.776 | relative viability ([3]; first compound 0.8 µM): 0.792 | relative viability ([3]; first compound 2.53 µM): 0.668 | relative viability ([3]; first compound 8 µM): 0.698 | relative viability ([4]; first compound 0.08 µM): 0.747 | relative viability ([4]; first compound 0.253 µM): 0.658 | relative viability ([4]; first compound 0.8 µM): 0.699 | relative viability ([4]; first compound 2.53 µM): 0.743 | relative viability ([4]; first compound 8 µM): 0.668

ChaGo-K-1
relative viability ([1]; first compound 10 µM): 0.259 | relative viability ([1]; first compound 31.62 µM): 0.277 | relative viability ([1]; first compound 100 µM): 0.259 | relative viability ([1]; first compound 316.23 µM): 0.257 | relative viability ([1]; first compound 1000 µM): 0.256 | relative viability ([2]; first compound 0.08 µM): 0.628 | relative viability ([2]; first compound 0.253 µM): 0.616 | relative viability ([2]; first compound 0.8 µM): 0.491 | relative viability ([2]; first compound 2.53 µM): 0.455 | relative viability ([2]; first compound 8 µM): 0.493 | relative viability ([3]; first compound 0.08 µM): 0.536 | relative viability ([3]; first compound 0.253 µM): 0.56 | relative viability ([3]; first compound 0.8 µM): 0.522 | relative viability ([3]; first compound 2.53 µM): 0.53 | relative viability ([3]; first compound 8 µM): 0.43 | relative viability ([4]; first compound 0.08 µM): 0.47 | relative viability ([4]; first compound 0.253 µM): 0.523 | relative viability ([4]; first compound 0.8 µM): 0.443 | relative viability ([4]; first compound 2.53 µM): 0.408 | relative viability ([4]; first compound 8 µM): 0.344

COR-L 105
relative viability ([1]; first compound 10 µM): 1.12 | relative viability ([1]; first compound 31.62 µM): 1.26 | relative viability ([1]; first compound 100 µM): 1.33 | relative viability ([1]; first compound 316.23 µM): 1.29 | relative viability ([1]; first compound 1000 µM): 1.1 | relative viability ([2]; first compound 0.08 µM): 0.775 | relative viability ([2]; first compound 0.253 µM): 0.806 | relative viability ([2]; first compound 0.8 µM): 0.619 | relative viability ([2]; first compound 2.53 µM): 0.582 | relative viability ([2]; first compound 8 µM): 0.491 | relative viability ([3]; first compound 0.08 µM): 0.706 | relative viability ([3]; first compound 0.253 µM): 0.716 | relative viability ([3]; first compound 0.8 µM): 0.631 | relative viability ([3]; first compound 2.53 µM): 0.711 | relative viability ([3]; first compound 8 µM): 0.632 | relative viability ([4]; first compound 0.08 µM): 0.794 | relative viability ([4]; first compound 0.253 µM): 0.802 | relative viability ([4]; first compound 0.8 µM): 0.737 | relative viability ([4]; first compound 2.53 µM): 0.543 | relative viability ([4]; first compound 8 µM): 0.672

NCI-H2126
relative viability ([1]; first compound 10 µM): 0.648 | relative viability ([1]; first compound 31.62 µM): 0.658 | relative viability ([1]; first compound 100 µM): 0.672 | relative viability ([1]; first compound 316.23 µM): 0.579 | relative viability ([1]; first compound 1000 µM): 0.71 | relative viability ([2]; first compound 0.08 µM): 0.816 | relative viability ([2]; first compound 0.253 µM): 0.641 | relative viability ([2]; first compound 0.8 µM): 0.666 | relative viability ([2]; first compound 2.53 µM): 0.585 | relative viability ([2]; first compound 8 µM): 0.664 | relative viability ([3]; first compound 0.08 µM): 0.589 | relative viability ([3]; first compound 0.253 µM): 0.637 | relative viability ([3]; first compound 0.8 µM): 0.666 | relative viability ([3]; first compound 2.53 µM): 0.566 | relative viability ([3]; first compound 8 µM): 0.547 | relative viability ([4]; first compound 0.08 µM): 0.973 | relative viability ([4]; first compound 0.253 µM): 0.861 | relative viability ([4]; first compound 0.8 µM): 0.88 | relative viability ([4]; first compound 2.53 µM): 0.845 | relative viability ([4]; first compound 8 µM): 0.904

NCI-H520
relative viability ([1]; first compound 10 µM): 0.656 | relative viability ([1]; first compound 31.62 µM): 0.593 | relative viability ([1]; first compound 100 µM): 0.688 | relative viability ([1]; first compound 316.23 µM): 0.657 | relative viability ([1]; first compound 1000 µM): 0.689 | relative viability ([2]; first compound 0.08 µM): 0.262 | relative viability ([2]; first compound 0.253 µM): 0.229 | relative viability ([2]; first compound 0.8 µM): 0.219 | relative viability ([2]; first compound 2.53 µM): 0.25 | relative viability ([2]; first compound 8 µM): 0.224 | relative viability ([3]; first compound 0.08 µM): 0.544 | relative viability ([3]; first compound 0.253 µM): 0.476 | relative viability ([3]; first compound 0.8 µM): 0.559 | relative viability ([3]; first compound 2.53 µM): 0.5 | relative viability ([3]; first compound 8 µM): 0.486 | relative viability ([4]; first compound 0.08 µM): 0.375 | relative viability ([4]; first compound 0.253 µM): 0.32 | relative viability ([4]; first compound 0.8 µM): 0.401 | relative viability ([4]; first compound 2.53 µM): 0.28 | relative viability ([4]; first compound 8 µM): 0.314
